Experiment [1] relates to Normal human vaginal epithelial cells (NHVE 5164). In words: Vaginal cell proliferation (CellTiter 96 Aqueous One Solution). The following applies: complete medium, 72 hours. Format: cell-based. As for the experimental part: Normal human vaginal epithelial cells from Clonetics (NHVE 5164) were subcultured into 96 well plates at 37° C., 5% CO2. Cells were cultured with basal PrEBM (Clonetics CC 3165) supplemented with cell growth medium bulletKit (Clonetics, cc-3166). Cells were treated with HLA having different molecular weights (MW), HLA1 (Sigma #H1751, intrinsic viscosity=100), HLA2 (MW, 150-500 k, Carbomer #8-01250) and HLA3 (a disaccharide, MW 405, Sigma #H9649). HLA was dissolved in either basal culture medium or basal medium supplemented with growth factors (complete medium) at concentration of 100, 10 or 1 μg/ml. Control group cells were treated with culture medium only. Each treatment group included 6 samples. The media for the different samples were changed 48 hours later and cell proliferation was examined at 72 hours by using CellTiter 96 Aqueous One Solution from Promega (#TB245). Twenty μl of the reagent was added to each well. The plates were returned to cell culture incubator for 3 hours. The absorbance in each well was measured at 490 nm with a microtiter reader.

In experiment [2] the test system is Primary vaginal epithelial cells. In words: Glycogen production, periodic acid Schiff (PAS) assay. The class given is cell-based, human. As to conditions: 0.1 mg/mL, 5 days treatment, p<0.05 vs control. As for the experimental part: Primary vaginal epithelial cells were cultured in 96-well plates. Five samples were tested for each group. Treatment was for 5 days with culture medium solutions (PrEBM, Clonetics CC-3165) without (the control group) and with 0.1 mg/mL hyaluronic acid (Sigma H-1751). The media were changed every other day. At the end the treatment, the media was removed, and the well was washed twice with HBSS.
Glycogen tests were performed using a periodic acid Schiff (PAS) assay as described below. Before the test, cells were fixed with a 10 vol % Formalin/ethanol solution for 1 hour at room temperature, followed by continuous rinsing with deionized (DI) water for 1 minute. Harleco® PAS Aassay Kit (from EM Science 64945/43) was used for glycogen detection. The basic principle is that the hydroxy groups on the glycogen units were first oxidized into aldehyde groups by periodic acid, and the aldehyde groups reacted with Schiff's agent to produce a red colorant. The specific assay operations were all done at room temperature as follows: • 1. Periodic acid reagent was added to the well/chamber and allowed to stand for 10 minutes). • 2. Samples were continuously rinsed in water for one minute. • 3. Schiff's reagent was added and allowed to stand for 15 minutes. • 4. […] The numbers of glycogen-stained positive cells were manually counted under microscope.

Experiment [3] deals with Candida albicans, ATCC 10231. In words: Candida albicans attachment to A431 cells. Format: cell-based. As for the experimental part: A culture of Candida albicans, ATCC 10231, was started in peptone/glucose culture medium and incubated at 37° C. with shaking for three days before the experiment. A monolayer of A431 cells, ATCC CRL-1555, was grown on a 24-well tissue culture plate until confluent. Hyaluronic acid at concentration of 1 mg/ml or 5 mg/ml in PBS was added to the wells (1.2 ml/well), and the plates were incubated for 30 minutes at 35° C. A control plate of confluent A431 cells was also prepared that received 1.2 ml/well PBS and no hyaluronic acid. After the 30 min incubation, 0.5 ml of solution was removed from the wells and 0.5 ml of yeast suspension (1×10^6 cfu/ml) was added. After 2 hours of incubation, the supernatant was removed from the wells and the wells were rinsed thoroughly with PBS to remove all non-bound yeast. Then, 0.2 ml of 0.25% trypsin/EDTA was added to each well and the plates were incubated at 35° C. for 15 min. Trypsinization was stopped by adding 1 ml of 10% fetal bovine serum in culture medium. The trypsinized cell/yeast suspension was centrifuged and re-suspended in 1 ml of the medium. […] The number of colonies on each plate was counted and the number of yeast attached to the cells in each well was calculated.
(§1) All the data are expressed as mean ± SEM and were analyzed by one-way Analysis of Variance (ANOVA) followed by a Tukey-Kramer Multiple Comparisons Test. […]

Experiment [4] has as its system E. coli with P family pili, ATCC 53505. Briefly: E. coli adhesion test on A431 cells. Format: cell-based. Here is the method:
Cultured A431 cells were used as a model human epithelial cell line. A431 cells were obtained from American Cell Type Culture Collection, catalog # CRL-1555. A monolayer of A431 cells was grown on a 24-well tissue culture plate until confluent. E. coli with P family pili, ATCC 53505, were cultured in trypticase soy broth (TSB) overnight. Phosphate buffered saline (PBS, control) or hyaluronic acid (Sigma, catalog # H1876) solutions at a concentration of 1 mg/ml or 5 mg/ml in PBS were added to the A431 cell layers, using a volume of 1.2 ml/well. For comparison, a control plate was set up and treated identically as the test plate, except that the wells in the control plate were given PBS without hyaluronic acid. After incubation for 30 minutes at 37° C., 0.5 ml of solution was removed from the wells and 0.5 ml of the bacteria suspension was added. […] After 60 minutes, the supernatant in each well was removed and the wells were rinsed thoroughly with PBS to remove all non-bound bacteria. Trypticase soy broth was then added to wells, and the system was incubated at 37° C. with shaking at 100 rpm/min for 2 hours. Bacterial concentration was measured by the detection of optical density of bacterial suspension at 540 nm.
as §1

A further experiment concerns E. coli, ATCC 53505. Briefly: Effect on E. coli growth (optical density at 540 nm). The following applies: 1 mg/ml or 5 mg/ml, 1, 2 and 3 hours. The class given is cell-based. Here is the method: To test whether hyaluronic acid could influence cellular growth, E. coli, ATCC 53505 cells were cultured overnight in trypticase soy broth. The culture was then diluted to an optical density of 0.1 and hyaluronic acid (1 mg/ml or 5 mg/ml) in PBS was incubated with the E. coli suspension. A control comprising a suspension E. coli treated with PBS was also prepared. The test and control cells were incubated at 37° C. with shaking and the optical density of the bacterial suspensions at 540 nm was measured at 1, 2 and 3 hours after addition of the hyaluronic acid or PBS. All the data are expressed as mean ± SEM and were analyzed by one-way Analysis of Variance (ANOVA) followed by a Tukey-Kramer Multiple Comparisons Test. Differences were considered significant at the level of p<0.05.

In the case of hyaluronic acid [HLA1], the “vaginal cell proliferation compared to control group” value in experiment [1] (100 μg/ml) is “significantly promoted vaginal cell proliferation”; in experiment [1] (low concentrations 10 and 1 μg/ml), “no significant effect on cell proliferation”.

For the substance hyaluronic acid, the “glycogen production (numbers of glycogen-stained positive cells)” value in experiment [2] is “increase in glycogen production was statistically significant”. Besides, the figures for the “number of Candida albicans adhering to A431 cells” value in experiment [3] (1 mg/ml in PBS) and in experiment [3] (5 mg/ml in PBS) were “the effect was not so significant” and “significantly inhibited”, respectively. In addition, the entries for the “number of E. coli attached to A431 cells” value in experiment [4] (1 mg/ml in PBS) and in experiment [4] (5 mg/ml in PBS) were “lesser effect on E. coli adhesion” and “significantly inhibited”, respectively. For the same substance, the E. coli growth result in the experiment with E. coli, ATCC 53505 was “neither of the hyaluronic acid solutions had any effect on bacterial growth”.

For hyaluronic acid [HLA2], the “vaginal cell proliferation compared to control group” value in experiment [1] (any of the three concentrations tested (100, 10, 1 μg/ml)) is “no statistically significant effect”.
